The text below walks through data of US7425433B2, “Carboxylic acid reductase polypeptide, nucleotide sequence encoding same and methods of use” (priority 2003, dated 2008).

Data set [1] relates to E. coli BL21-CodonPlus(DE3)-RP carrying pHAT-305. Briefly: In vivo whole cell reactions. It counts as cell-based. The settings on record: IPTG-induced cultures, 1 mg/ml substrate acid. How it is done:
In vivo whole cell reactions were typically conducted with 100 ml cultures of E. coli BL21-CodonPlus®(DE3)-RP carrying pHAT-305. Cultures were induced by 1 mM IPTG for 4 hrs before receiving 1 mg/ml of benzoic acid, vanillic acid, or ferulic acid.
Samples of approximately 2 mL were removed at various time intervals, sample pH was adjusted to pH 2.0 with 6N HCl, and samples were extracted with 1 ml ethyl acetate, and centrifuged for 2 min at 1,000×g. Organic phases were removed and used to spot silica gel GF254 TLC plates for analysis, and comparison with authentic standards of benzaldehyde, vanillin and coniferaldehyde. For metabolite isolation, reactions were stopped by adjustment of mixtures to pH 2.0 with 6N HCl, and extracted three times with half-volumes of ethyl acetate. After removal of solvent by rotary evaporation, reduction products were purified by preparative TLC for analysis and comparison with authentic standards.

In data set [2] the target is T1, carboxylic acid reductase (CAR) (Nocardia iowensis, UniProt Q6RKB1, L218S).
T1 construct: made in house; host or cells: E. coli BL21-CodonPlus(DE3)-RP carrying pHAT-305
It counts as biochemical, Nocardia sp. NRRL 5646. As to conditions: for Km: cofactors of purified HAT-CAR, Cleland's kinetics program; for Specific activity: 25° C. How it is done:
Enzyme assay. The standard reaction mixture contained 1 mM ATP, 0.15 mM NADPH, 5 mM sodium benzoate, 10 mM MgCl2 and enzyme in 0.05 M Tris buffer (pH 7.5) containing 1 mM EDTA, 1 mM DTT and 10% glycerol (vol/vol), in a final volume of 1.4 ml. The reference cuvette contained all components except benzoate. Reactions were initiated by adding enzyme, and were monitored by recording the absorption decrease at 340 nm at 25° C. with a Shimadzu UV-2010PC scanning spectrophotometer. One unit of the enzyme was defined as the amount of enzyme that catalyzed the reduction of 1 µmol of benzoate to benzaldehyde.min^−1 under standard assay condition. Protein concentrations were measured by the Bradford protein microassay (4) with bovine serum albumin as the standard.

Like-named read-outs stand apart in the source and are kept apart here.

The Km is the substrate concentration at which the rate is half of its maximum.

For `COc1cc(C=O)ccc1O` [vanillin], in data set [1], the “in vivo transformation by whole cells” value is recorded as “converted to their corresponding alcohols”.

Turning to `O=C(O)c1ccccc1` [benzoate, benzoic acid], the “in vivo transformation by whole cells” value in data set [1] was “quickly converted to benzyl alcohol”.

On to `Nc1ncnc2c1ncn2[C@@H]1O[C@H](COP(=O)(O)OP(=O)(O)OP(=O)(O)O)[C@@H](O)[C@H]1O` [ATP], for which the Michaelis constant (Km) in data set [2] came to 69 ± 6.6 µM.

As to `COc1cc(/C=C/C=O)ccc1O` [coniferyl aldehyde], in data set [1], the “in vivo transformation by whole cells” value is reported as “converted to their corresponding alcohols”.

With `NC(=O)C1=CN([C@@H]2O[C@H](COP(=O)(O)OP(=O)(O)OC[C@H]3O[C@@H](n4cnc5c(N)ncnc54)[C@H](OP(=O)(O)O)[C@@H]3O)[C@@H](O)[C@H]2O)C=CC1` [NADPH], the Km in data set [2] is 57 ± 3.6 µM.

B1: HAT-CAR: HAT-tagged recombinant Nocardia carboxylic acid reductase fusion protein expressed in E. coli from pHAT-305 (protein)
chain: AVDSPDERLQRRIAQLFAEDEQVKAARPLEAVSAAVSAPGMRLAQIAATVMAGYADRPAAGQRAFELNTDDATGRTSLRLLPRFETITYRELWQRVGEVAAAWHHDPENPLRAGDFVALLGFTSIDYATLDLADIHLGAVTVPLQASAAVSQLIAILTETSPRLLASTPEHLDAAVECLLAGTTPERLVVFDYHPEDDDQRAAFESARRRLADAGSSVIVETLDAVRARGRDLPAAPLFVPDTDDDPLALLIYTSGSTGTPKGAMYTNRLAATMWQGNSMLQGNSQRVGINLNYMPMSHIAGRISLFGVLARGGTAYFAAKSDMSTLFEDIGLVRPTEIFFVPRVCDMVFQRYQSELDRRSVAGADLDTLDREVKADLRQNYLGGRFLVAVVGSAPLAAEMKTFMESVLDLPLHDGYGSTEAGASVLLDNQIQRPPVLDYKLVDVPELGYFRTDRPHPRGELLLKAETTIPGYYKRPEVTAEIFDEDGFYKTGDIVAELEHDRLVYVDRRNNVLKLSQGEFVTVAHLEAVFASSPLIRQIFIYGSSERSYLLAVIVPTDDALRGRDTATLKSALAESIQRIAKDANLQPYEIPRDFLIETEPFTIANGLLSGIAKLLRPNLKERYGAQLEQMYTDLATGQADELLALRREAADLPVLETVSRAAKAMLGVASADMRPDAHFTDLGGDSLSALSFSNLLHEIFGVEVPVGVVVSPANELRDLANYIEAERNSGAKRPTFTSVHGGGSEIRAADLTLDKFIDARTLAAADSIPHAPVPAQTVLLTGANGYLGRFLCLEWLERLDKTGGTLICVVRGSDAAAARKRLDSAFDSGDPGLLEHYQQLAARTLEVLAGDIGDPNLGLDDATWQRLAETVDLIVHPAALVNHVLPYTQLFGPNVVGTAEIVRLAITARRKPVTYLSTVGVADQVDPAEYQEDSDVREMSAVRVVRESYANGYGNSKWAGEVLLREAHDLCGLPVAVFRSDMILAHSRYAGQLNVQDVFTRLILSLVATGIAPYSFYRTDADGNRQRAHYDGLPADFTAAAITALGIQATEGFRTYDVLNPYDDGISLDEFVDWLVESGHPIQRITDYSDWFHRFETAIRALPEKQRQASVLPLLDAYRNPCPAVRGAILPAKEFQAAVQTAKIGPEQDIPHLSAPLIDKYVSDLELLQLL
modifications: left off: small tags and cut ends
In the case of B1, the Specific activity in data set [2] (purification step: Crude extract) was 0.009 U/mg; in data set [2] (purification step: DEAE Sepharose), 0.09 U/mg; in data set [2] (purification step: Talon Matrix), 0.066 U/mg. Further, the “specific CAR activity” value in data set [2] (purified HAT-CAR) is on record as 0.11 μmol.min^−1.mg-^−1 protein. Also, in data set [2] (purified recombinant HAT-CAR), the Vmax turned out to be 0.135±0.004 μmol.min^−1.mg^−1 protein.
